# According to article PMC9611727, “Optimization of a Novel Mandelamide-Derived Pyrrolopyrimidine Series of PERK Inhibitors” (Pharmaceutics, 2022):
# Legend:
# [1] = Plasma protein binding (RED dialysis), human; assay type: in vitro ADME; details: both sexes, pooled human plasma, pH 7.4
# Excerpt: (§1) Verapamil hydrochloride and tamoxifen were obtained from Sigma-Aldrich. […]
# (§2) Pooled mixed gender human donor plasma, Sprague Dawley male rat plasma, CD-1 (ICR) male mouse plasma and male beagle dog plasma were obtained from Bioreclamation Inc. (Westbury, NY). Reusable Teflon base plate, RED Device inserts, and BupH Phosphate Buffered Saline packs (0.1 M sodium phosphate and 0.15 M sodium chloride when dissolved in 0.5 L water) were obtained from Thermo Scientific (Waltham, MA). Propranolol was obtained from Sigma-Aldrich (St. Louis, MO). All solvents were obtained from commercial sources and used without further purification.
# (§3) Frozen plasma was thawed and the pH of plasma and BupH phosphate buffered saline was adjusted to 7.4 prior to dialysis. Into each well of a reusable Teflon 48-well base plate a RED insert was placed open end up. Ten microliters (10 µL) of the test compound (0.1 mM in acetonitrile/water, 1:1 v/v) was added to 990 µL of plasma to achieve 1 µM final concentration. The spiked plasma (200 µL) was added to the sample chamber, which is indicated by the red retainer ring (donor side). To the other side (receiver side), 350 µL of BupH phosphate buffered saline (pH 7.4) was added. A buffer-to-buffer assay was also performed to measure equilibrium across the membrane in the absence of plasma protein.
# (§4) Propranolol was used as a positive control. All samples were prepared in triplicate. The RED device base plate was then sealed and placed in a shaking incubator set to maintain 37°C and 200 rpm for four hours.
# (§5) After incubation, 100 µL of each sample was combined with an equal volume of either plasma or buffer, to create a similar matrix for all samples. Blank buffer was added to plasma samples, and vice versa. Samples from the incubation, along with the original compound-spiked plasma samples, were prepared for analysis in the same manner. Protein precipitation by addition of two parts of ice-cold acetonitrile to one part of reaction volume was carried out. To ensure complete protein precipitation samples were sealed and placed overnight at 4°C. The next morning samples were centrifuged at 3,600 rpm for 15 minutes. The supernatants (70 µL) were supplemented with an equal volume of internal standard solution (0.15 µM verapamil in water) and subjected to LC-MS/MS analysis.
# [2] = Metabolic clearance in hepatocytes, rat; assay type: in vitro ADME; details: male, Sprague Dawley, cryopreserved rat hepatocytes, read-out: Hepatocyte Clearance (t1/2 min) Rat
# Experimental: (§6) Metabolic Clearance in Hepatocytes
# (§7) Testosterone was obtained from Cerilliant (Round Rock, TX). 7-Hydroxycoumarin was obtained from Sigma-Aldrich (St.
# (§8) Louis, MO). Ten-donor male pooled cryopreserved human hepatocytes, cryopreserved male Sprague Dawley rat hepatocytes, cryopreserved male ICR/CD-1 mouse hepatocytes, cryopreserved male beagle dog hepatocytes, In VitroGro HI Medium (Incubation), and InVitroGro HT Medium (Thawing) were obtained from Bioreclamation IVT (Baltimore, MD). All solvents were obtained from commercial sources and used without further purification.Test compound was prepared as a 1 mM stock solution in DMSO. A 2 µM solution of test compound and testosterone was prepared (7 - hydroxycoumarin was prepared at 20 µM) in In VitroGro HI Medium (Incubation). These solutions were placed in a sterile incubator set to maintain 37°C, 5% CO2, and 98% humidity to pre-warm. Cryopreserved hepatocytes were prepared at a concentration of 2 x 10^6 living cells/mL in incubation media and placed in the incubator to pre-warn. The compound solutions and hepatocyte mixtures were then combined at a ratio of 1:1 (v:v). The final volume of the reaction mixture was 750 µL, containing 1 µM test compound and 1 x 10^6 cells/mL. The reaction mixture was placed in the incubator on a plate shaker. After 0, 15, 30, 60, 90, and 120 minutes of incubation, 100 µL of reaction mixtures were removed from the incubation plate and mixed with 150 µL of ice-cold acetonitrile in a designated well of a 96-well crash plate. The 96-well crash plate was placed on ice for 15 min, and samples were centrifuged (3,600 rpm, 10 min, 4 °C) to precipitate protein.
# (§9) The supernatants were diluted 1:1 (v/v) with water containing tolbutamide, (internal standard for positive and negative modes, respectively) in a 96-well shallow injection plate. This plate was sealed for LC-MS analysis. All measurements
# [3] = Plasma protein binding (RED dialysis), dog; assay type: in vitro ADME; details: male, beagle, pH 7.4
# Excerpt: as §1, §2, §3, §4, §5
# [4] = Metabolic clearance in hepatocytes, mouse; assay type: in vitro ADME; details: male, ICR/CD-1, cryopreserved mouse hepatocytes, read-out: Hepatocyte Clearance (t1/2 min) Mouse
# Experimental: as §6, §7, §8, §9
# [5] = Kinetic aqueous solubility in PBS pH 7.4; assay type: physicochemical; details: phosphate buffered saline (PBS), 25 °C, aqueous buffer, kinetic from dmso stock
# Experimental: These promising compounds were evaluated in in vitro ADME assays (aqueous solubility, Caco-2 permeability, plasma protein binding, and hepatocyte stability) to determine their drug-like properties (Table 4).
# Verapamil hydrochloride and tamoxifen were obtained from Sigma-Aldrich. All solvents were obtained from commercial sources and used without further purification. Hydrophilic PVDF 96-well filter plates ([…]), 2 mL 96-well assay block, and 96-well UV plates were purchased from Fisher Scientific.Test compound was prepared as a 10 mM stock solution in DMSO. Aqueous suspensions of test compound at 100 µM were prepared in assay buffers. The composition of phosphate buffered saline (PBS) is 0.1 M sodium phosphate, and 0.15 M sodium chloride, adjusted to pH 7.4. The suspensions were agitated at 200 rpm for 1 hour at 25 °C. The suspensions were transferred to a 0.45 µm hydrophilic PVDF 96-well filter plate mounted on a fresh 2 mL 96-well plate and were filtered by centrifugation at 3,000 rpm for 1 min. 150 µL of filtrates were transferred to 96-well UV plate for absorbance measurement. In order to determine the optimal wavelength for detection (λmax), the absorbance spectrum of the DMSO stock solution for each compound was recorded over a broad range of wavelengths (260–450 nm) using a UV/VIS plate reader (Molecular Devices Spectramax i3). To prepare calibration curves, a 1:1 serial dilution was performed on each compound starting at 100 µM to generate calibration solutions with concentrations ranging from […] to 100 µM. The UV absorbance of calibrants was measured at λmax for each compound. Concentration of each compound in the assay solution was calculated using the corresponding calibration curve. All assay measurements were performed in duplicate. […]
# [6] = Metabolic clearance in hepatocytes, dog; assay type: in vitro ADME; details: male, beagle, cryopreserved dog hepatocytes, read-out: Hepatocyte Clearance (t1/2 min) Dog
# Experimental: as §6, §7, §8, §9
SMILES,"fraction unbound at 4 h, 1 µM [1]",half-life at 1 µM [2] [h],"fraction unbound at 4 h, 1 µM [3]",half-life at 1 µM [4] [h],solubility kinetic at 1 h [5] [µM],half-life at 1 µM [6] [h]
Cc1nc(N)c2c(-c3ccc(NC(=O)[C@H](O)c4cccc(F)c4)cc3C)cn(C)c2n1 [Compound 24],0.008,0.383,0.03,0.517,76,> 16.7
Cc1nc(N)c2c(-c3ccc(NC(=O)[C@H](O)c4cccc(C(F)(F)F)c4)cc3C)cn(C)c2n1 [Compound 26],0.002,2.77,0.005,1.97,19,2.17
Cc1nc(N)c2c(-c3ccc(NC(=O)[C@H](O)c4cc(F)cc(C(F)(F)F)c4)cc3C)cn(C)c2n1 [Compound 39],0.001,4.2,< 0.001,5.33,10,3.72
"Cc1nc(N)c2c(-c3ccc(NC(=O)[C@H](O)c4cccc(F)c4)c(F)c3F)cn(C)c2n1 [Compound 70, (R)-N-(4-(4-amino-2,7-dimethyl-7H-pyrrolo[2,3-d]pyrimidin-5-yl)-2,3-difluorophenyl)-2-(3-fluorophenyl)-2-hydroxyacetamide]",0.006,0.25,0.006,0.75,66,4.47

# Other lines, results leading:
"fraction unbound at 4 h, 1 µM [1]",half-life at 1 µM [2] [h],"fraction unbound at 4 h, 1 µM [3]",half-life at 1 µM [4] [h],solubility kinetic at 1 h [5] [µM],half-life at 1 µM [6] [h],SMILES
0.002,0.45,0.017,1.03,35,5.92,Cc1nc(N)c2c(-c3ccc(NC(=O)[C@H](O)c4cccc(Cl)c4)cc3C)cn(C)c2n1 [Compound 28]
0.01,2.02,0.016,13.4,19,7.67,Cc1nc(N)c2c(-c3ccc(NC(=O)[C@H](O)c4cc(F)cc(F)c4)cc3C)cn(C)c2n1 [Compound 38]
0.004,0.267,0.012,0.4,24,3.87,Cc1cc(F)cc([C@@H](O)C(=O)Nc2ccc(-c3cn(C)c4nc(C)nc(N)c34)c(C)c2)c1 [Compound 41]
0.001,0.417,0.004,0.883,14,3.58,Cc1nc(N)c2c(-c3ccc(NC(=O)[C@H](O)c4cccc(Cl)c4)cc3F)cn(C)c2n1 [Compound 48]
0.004,0.367,0.013,1.07,58,9.45,Cc1nc(N)c2c(-c3ccc(NC(=O)[C@H](O)c4cccc(F)c4)c(F)c3C)cn(C)c2n1 [Compound 65]
0.007,0.217,0.018,2.78,61,0.65,Cc1nc(N)c2c(-c3cc(F)c(NC(=O)[C@H](O)c4cccc(F)c4)cc3C)cn(C)c2n1 [Compound 66]
